Experimental data taken from patent publication US5620997A, “Isothiazolones” (Warner-Lambert Company, priority 1995, dated 1997).

Target: T1, rabbit reticulocyte 15-LO (Oryctolagus cuniculus, UniProt P12530)
T1 construct: rabbit reticulocyte 15-LO; from tissue; host or cells: rabbit reticulocytes
T1 sequence (P12530 1-663): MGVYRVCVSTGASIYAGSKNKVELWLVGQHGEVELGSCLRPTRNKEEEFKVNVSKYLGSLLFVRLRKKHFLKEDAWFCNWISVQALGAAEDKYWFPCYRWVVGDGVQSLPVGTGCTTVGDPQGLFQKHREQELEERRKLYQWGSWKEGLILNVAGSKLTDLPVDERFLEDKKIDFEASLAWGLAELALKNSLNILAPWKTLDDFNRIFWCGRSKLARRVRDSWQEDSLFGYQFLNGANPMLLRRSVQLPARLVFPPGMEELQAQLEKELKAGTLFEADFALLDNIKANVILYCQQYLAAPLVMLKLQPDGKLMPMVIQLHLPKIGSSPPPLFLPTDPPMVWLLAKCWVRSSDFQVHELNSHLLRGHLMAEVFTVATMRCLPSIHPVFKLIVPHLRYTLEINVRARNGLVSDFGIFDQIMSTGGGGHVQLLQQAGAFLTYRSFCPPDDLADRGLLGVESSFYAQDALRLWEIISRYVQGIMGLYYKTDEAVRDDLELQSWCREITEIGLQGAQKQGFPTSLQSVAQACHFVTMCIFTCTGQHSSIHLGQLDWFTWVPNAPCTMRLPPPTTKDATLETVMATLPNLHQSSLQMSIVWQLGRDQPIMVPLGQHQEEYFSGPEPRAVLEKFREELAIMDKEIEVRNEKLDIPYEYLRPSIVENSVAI
Test: Colorimetric Assay of 15-LO Inhibition
Assay type: biochemical
Conditions: colorimetric method
Protocol: The isothiazolones of Formula I are also effective for treating inflammation and atherosclerosis. A characteristic feature of atherosclerosis is the accumulation of cholesteryl ester engorged from foam cells. Foam cells are derived from circulating monocytes which invade artery walls in response to hypercholesterolemia, and mature into tissue macrophages. […] Specifically, representative compounds were evaluated by the methods described by Auerbach, et al., Analytical Biochemistry, 1992;201:375-380. Two in vitro assays were utilized, both utilizing rabbit reticulocyte 15-LO, and linoleic acid as substrate, to enzymatically produce a peroxide oxidation product known as 13(S)-HPODE. N-Benzoyl leucomethylene blue was utilized as a colorimetric reagent for detection and quantification of the peroxide formation. Also, HPLC was utilized to quantify the oxidation following incubation at 4° C. for 10 minutes.
Table 3 gives the concentration of compound required to inhibit 50% of the activity of 15-LO (IC50) when measured by the HPLC method of Auerbach, et al. Table 4 gives the percent inhibition of 15-LO activity when evaluated by the colorimetric method.

`NS(=O)(=O)c1ccc(-n2sc3ccccc3c2=O)cc1` [Example 1, 4-(3-Oxo-3h-benzo[d]isothiazol-2-yl)-benzenesulfonamide] gave an inhibition at 10 µM of 35%.
